In the experiment the test system is behaviors of compound-treated mice. Description: Neuropharmacological Assay (SmartCube). It counts as in vivo. Particulars: for minimal effective dose: Mus musculus, ip, 0.25 h, dose having 50% or more total activity in SmartCube, i.p., read-out: MED (minimal effective dose); for AD: ADHD (probability that activity matches class) / AG: analgesic (probability that activity matches class) / AX: anxiolytic (probability that activity matches class) / CE: cognitive enhancer (probability that activity matches class) / DP: anti-depressant (probability that activity matches class) / MS: mood stabilizer (probability that activity matches class) / PS: anti-psychotic (probability that activity matches class) / SD: sedative hypnotic (probability that activity matches class) / UN: uncharacterized CNS activity (probability that activity matches class): i.p. 15 min before behavioral test, most efficacious dose(s) of 3 doses. In a few lines: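 Behavioral signatures were captured automatically by video, and each drug class received a probability for the best of three i.p. doses given 15 min pre-test (vehicle: Pharmasolve/PEG/propylene glycol). Potency is given as MED, the lowest mpk dose (typically 0.3–30) reaching 50% or more total activity.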

Where a name gives a salt, the structure may show the parent alone.

Usually minimal effective dose stands for the lowest level tested that produced the effect sought. In the case of `CNCC1OCCc2c(-c3cnccn3)cccc21` (stereo not shown) [Compound 56, N-Methyl-1-(5-(pyrazin-2-yl)isochroman-1-yl)methanamine hydrochloride salt], the minimal effective dose lay in the range of 3 to 10 mg/kg, the “AD: ADHD (probability that activity matches class)” value (“AD: ADHD” below) is reported as “++ (5% ≤ ++ <25%)”, the “AG: analgesic (probability that activity matches class)” value (“AG: analgesic” for short) was “+ (LOQ ≤ + <5%)” and the “AX: anxiolytic (probability that activity matches class)” value (shortened to “AX: anxiolytic”) was “++ (5% ≤ ++ <25%)”. Further, the “CE: cognitive enhancer (probability that activity matches class)” value (“CE: cognitive enhancer” for short) was “+ (LOQ ≤ + <5%)”, the “DP: anti-depressant (probability that activity matches class)” value (“DP: anti-depressant” below) was “++++ (50% ≤ ++++)”, the “MS: mood stabilizer (probability that activity matches class)” value (“MS: mood stabilizer” below) is given as “+ (LOQ ≤ + <5%)” and the “PS: anti-psychotic (probability that activity matches class)” value (“PS: anti-psychotic” below) is recorded as “+ (LOQ ≤ + <5%)”. For the same compound, the “SD: sedative hypnotic (probability that activity matches class)” value (shortened to “SD: sedative hypnotic”) is reported as “+ (LOQ ≤ + <5%)” and the “UN: uncharacterized CNS activity (probability that activity matches class)” value (“UN: uncharacterized CNS activity” below) is “+ (LOQ ≤ + <5%)”.

In the case of `NCC1OCCc2ccc(-c3ccncn3)cc21` (stereo not shown) [Compound 57, 7-(Pyrimidin-4-yl)isochroman-1-yl)methanamine hydrochloride], the minimal effective dose lay within 10 to 30 mg/kg, the “AD: ADHD” value is recorded as “+ (LOQ ≤ + <5%)”, the “AG: analgesic” value is listed as “+ (LOQ ≤ + <5%)” and the “AX: anxiolytic” value is on record as “+ (LOQ ≤ + <5%)”. In addition, the “CE: cognitive enhancer” value was “++ (5% ≤ ++ <25%)”, the “DP: anti-depressant” value is “++ (5% ≤ ++ <25%)”, the “MS: mood stabilizer” value is reported as “+ (LOQ ≤ + <5%)” and the “PS: anti-psychotic” value is recorded as “++ (5% ≤ ++ <25%)”. Also, the “SD: sedative hypnotic” value is “++ (5% ≤ ++ <25%)” and the “UN: uncharacterized CNS activity” value is “+++ (25% ≤ +++ <50%)”.

For `CNCC1OCCc2ccc(-c3ccncn3)cc21` (stereo not shown) [Compound 58, N-Methyl-1-(7-(pyrimidin-4-yl)isochroman-1-yl)methanamine hydrochloride salt], the minimal effective dose lay within 10 to 30 mg/kg, the “AD: ADHD” value is on record as “+ (LOQ ≤ + <5%)”, the “AG: analgesic” value is recorded as “+ (LOQ ≤ + <5%)” and the “AX: anxiolytic” value is “++ (5% ≤ ++ <25%)”. The “CE: cognitive enhancer” value is reported as “+ (LOQ ≤ + <5%)”, the “DP: anti-depressant” value is reported as “+ (LOQ ≤ + <5%)”, the “MS: mood stabilizer” value was “+ (LOQ ≤ + <5%)” and the “PS: anti-psychotic” value was “+ (LOQ ≤ + <5%)”. Further, the “SD: sedative hypnotic” value was “+ (LOQ ≤ + <5%)” and the “UN: uncharacterized CNS activity” value was “++++ (50% ≤ ++++)”.

Take `NCC1OCCc2c(-c3cncs3)cccc21` (stereo not shown) [Compound 59, (5-(Thiazol-5-yl)isochroman-1-yl)methanamine hydrochloride salt]: the minimal effective dose was no more than 3 mg/kg, the “AD: ADHD” value is on record as “++ (5% ≤ ++ <25%)”, the “AG: analgesic” value is on record as “++ (5% ≤ ++ <25%)” and the “AX: anxiolytic” value is “++ (5% ≤ ++ <25%)”. Further, the “CE: cognitive enhancer” value is on record as “+ (LOQ ≤ + <5%)”, the “DP: anti-depressant” value was “++++ (50% ≤ ++++)”, the “MS: mood stabilizer” value is “+ (LOQ ≤ + <5%)” and the “PS: anti-psychotic” value is given as “+ (LOQ ≤ + <5%)”. The “SD: sedative hypnotic” value was “+++ (25% ≤ +++ <50%)” and the “UN: uncharacterized CNS activity” value is on record as “++ (5% ≤ ++ <25%)”.

Source of the values: patent publication US10780074B2, “Compounds and uses thereof” (Sunovion Pharmaceuticals Inc., priority 2017, dated 2020).
